Assay results reported in patent US20220204497A1, “NOVEL COMPOUND HAVING ANTICANCER ACTIVITY, AND METHOD FOR PRODUCING SAME” (MEDICINAL BIOCONVERGENCE RESEARCH CENTER, priority 2019, published 2022).

Key:
A549 cells = test: Cell viability by MTT method in A549 cells; format: cell-based; design: concentration or dose not given beside the values; details: 72 hours treatment
AIMP2-DX2 = molecular target: T1, AIMP2-DX2 (Homo sapiens, UniProt Q13155); test: DX2-nanoluciferase assay (DX2 expression change) in transfected A549 cells; details: for inhibition at 40 µM: A549, 4 h, read-out: DX-Nanoluciferase activity (40 μM), 40 μM, 4 hours treatment, A549 cells transfected with nanoluciferase-DX2; for inhibition at 40 µM / DX-Nanoluciferase activity (40 μM): inhibitory effect on AIMP2-DX2 expression
T1 sequence (Q13155 1-251 isoform Q13155-2): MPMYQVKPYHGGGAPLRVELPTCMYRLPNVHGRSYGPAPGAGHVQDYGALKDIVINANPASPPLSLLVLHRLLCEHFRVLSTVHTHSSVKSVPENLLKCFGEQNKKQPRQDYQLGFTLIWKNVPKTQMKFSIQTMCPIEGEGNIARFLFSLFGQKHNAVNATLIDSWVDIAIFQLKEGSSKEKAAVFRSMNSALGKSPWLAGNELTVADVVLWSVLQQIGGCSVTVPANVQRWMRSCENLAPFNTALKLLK
Experimental: After cloning DX2 into a plasmid expressing nanoluciferase, the plasmid was transfected into A549 cells. Transfected cells were seeded 1×10^4 per well in a 96-well plate and stabilized for 12 hours. […] Cell viability was measured by the MTT method after 72 hours of treatment with each concentration of the compound in A549 cells.

[1] = 4 hours treatment, A549 cells transfected with nanoluciferase-DX2

Row | inhibition at 40 µM (AIMP2-DX2) [%] | Compound | Cell Viability (% inhibition) (A549) (A549 cells) [%] | DX-Nanoluciferase activity (40 μM) (AIMP2-DX2; [1]) | DX-Nanoluciferase activity (10 μM) (AIMP2-DX2; 10 μM, 4 hours treatment, A549 cells transfected with nanoluciferase-DX2)
1 | 16.4 ± 8.65 | COc1ccc(-c2csc(NC(=O)[C@H](CC(C)C)NS(=O)(=O)c3ccc(C)cc3)n2)cc1OC [Compound 91, (S)—N-(4-(3,4-dimethoxyphenyl)thiazol-2-yl)-4-methyl-2-(4-methylphenylsulfonamido)pentanamide] | 87.36 ± 2.13 |  | 
2 | 31.5 ± 6.84 | Cc1ccc(S(=O)(=O)N[C@@H](CC(C)C)C(=O)Nc2nc(-c3ccc(F)cc3Br)cs2)cc1 [Compound 92, (S)—N-(4-(2-bromo-4-fluorophenyl)thiazol-2-yl)-4-methyl-2-(4-methylphenylsulfonamido)pentanamide] | 100.05 ± 1.22 |  | 
3 | 22.5 ± 3.96 | Cc1ccc(S(=O)(=O)N[C@@H](CC(C)C)C(=O)Oc2ccc(-c3csc(N)n3)cc2)cc1 [Compound 93, (S)-4-(2-Aminothiazol-4-yl)phenyl 4-methyl-2-(4-methylphenylsulfonamido)pentanoate] | 48.85 ± 9.03 |  | 
4 | 11.5 ± 7.25 | Cc1ccc(S(=O)(=O)N[C@@H](CC(C)C)C(=O)Nc2nc(-c3ccc(F)cc3)cs2)cc1 [Compound 94, (S)—N-(4-(4-fluorophenyl)thiazol-2-yl)-4-methyl-2-(4-methylphenylsulfonamido)pentanamide] | 101.42 ± 0.79 |  | 
5 | 22.6 ± 5.29 | Cc1ccc(S(=O)(=O)N[C@@H](CC(C)C)C(=O)Nc2nc(-c3ccc(OC(F)(F)F)cc3)cs2)cc1 [Compound 95, (S)-4-Methyl-2-(4-methylphenylsulfonamido)-N-(4-(4-(trifluoromethoxy)phenyl)thiazol-2-yl)pentanamide] | 92.97 ± 0.09 |  | 
6 | 36.8 ± 9.16 | Cc1ccc(S(=O)(=O)N[C@@H](CC(C)C)C(=O)Nc2nc(-c3ccc(O)cc3)cs2)cc1 [Compound 96, (S)—N-(4-(4-hydroxyphenyl)thiazol-2-yl)-4-methyl-2-(4-methylphenylsulfonamido)pentanamide] | 93.07 ± 5.89 |  | 
7 | 15.1 ± 2.59 | Cc1ccc(-c2csc(NC(=O)[C@H](CC(C)C)N(C)S(=O)(=O)c3ccccc3)n2)cc1 [Compound 97, (S)-4-Methyl-2-(methylphenylsulfonamido)-N-(4p-tolylthiazol-2-yl)pentanamide] | 67.10 ± 7.93 |  | 
8 | 10.9 ± 4.88 | Cc1ccc(S(=O)(=O)N[C@@H](Cc2ccc(OS(=O)(=O)c3ccc(C)cc3)cc2)C(=O)Nc2ccc(N3CCOCC3)cc2)cc1 [Compound 101, (S)-4-(2-(4-Methylphenylsulfonamido)-3-(4-morpholinophenylamino)-3-oxopropyl)phenyl 4-methylbenzenesulfonate] | 35.10 ± 5.95 |  | 
9 | 27.2 ± 5.87 | COc1ccc(-c2csc(NC(=O)[C@H](Cc3c[nH]cn3)NS(=O)(=O)c3ccc(Br)cc3)n2)cc1 [Compound 102, (S)-2-(4-Bromophenylsulfonamido)-3-(1H-Imidazol-4-yl)-N-(4-(4-methoxyphenyl)thiazol-2-yl)propanamide] | 91.03 ± 6.44 |  | 
10 | 63.7 ± 14.3 | CON(C)C(=O)[C@H](CC(C)C)NS(=O)(=O)c1ccc(C)cc1 [Compound 103, (S)—N-methoxy-N,4-dimethyl-2-(4-methylphenylsulfonamido)pentanamide] | −5.00 ± 6.69 |  | 
11 | 64.3 ± 5.96 | CON(C)C(=O)[C@H](Cc1c[nH]c2ccccc12)NS(=O)(=O)c1ccc(C)cc1 [Compound 104, (S)-3-(1H-indol-3-yl)-N-methoxy-N-methyl-2-(4-methylphenylsulfonamido)propanamide] | 6.26 ± 7.67 |  | 
12 | 57.1 ± 1.56 | Cc1ccc(S(=O)(=O)N[C@@H](Cc2c[nH]c3ccccc23)C(=O)N2CCOCCOCCOCC2)cc1 [Compound 105, (S)—N-(3-(1H-indol-3-yl)-1-oxo-1-(1,4,7-trioxa-10-azacyclododecan-10-yl)propan-2-yl)-4-methylbenzenesulfonamide] | 29.36 ± 7.43 |  | 
13 | 37 ± 12.5 | O=C(Nc1nc(-c2ccccc2Cl)cs1)[C@H](Cc1c[nH]c2ccccc12)NS(=O)(=O)c1ccc(Br)cc1 [Compound 107, (S)-2-(4-Bromophenylsulfonamido)-N-(4-(2-chlorophenyl)thiazol-2-yl)-3-(1H-indol-3-yl)propanamide] | 59.19 ± 2.09 |  | 
14 | 57.5 ± 9.11 | O=C(Nc1nccs1)[C@H](Cc1c[nH]c2ccccc12)NS(=O)(=O)c1ccc(Br)cc1 [Compound 109, (S)-2-(4-Bromophenylsulfonamido)-3-(1H-indol-3-yl)-N-(thiazol-2-yl)propanamide] | 4.14 ± 1.04 |  | 
15 | 46.7 ± 7.18 | Cc1cnc(NC(=O)[C@H](Cc2c[nH]c3ccccc23)NS(=O)(=O)c2ccc(Br)cc2)s1 [Compound 110, (S)-2-(4-Bromophenylsulfonamido)-3-(1H-indol-3-yl)-N-(5-methylthiazol-2-yl)propanamide] | 8.95 ± 3.66 |  | 

Second part, the compound before the results:

Row | Compound | inhibition at 40 µM (AIMP2-DX2) [%] | Cell Viability (% inhibition) (A549) (A549 cells) [%] | DX-Nanoluciferase activity (40 μM) (AIMP2-DX2; [1]) | DX-Nanoluciferase activity (10 μM) (AIMP2-DX2; 10 μM, 4 hours treatment, A549 cells transfected with nanoluciferase-DX2)
16 | COc1ccc(S(=O)(=O)N[C@@H](Cc2c[nH]c3ccccc23)C(=O)Nc2ccc(N3CCOCC3)cc2)cc1 [Compound 80, (S)-3-(1H-indol-3-yl)-2-(4-methoxyphenylsulfonamido)-N-(4-morpholinophenyl)propanamide] | 44.9 ± 13.3 | 38.64 ± 1.03 |  | 
17 | CC(C)c1ccc(S(=O)(=O)N[C@@H](Cc2c[nH]c3ccccc23)C(=O)Nc2ccc(N3CCOCC3)cc2)cc1 [Compound 81, (S)-3-(1 Indol-3-yl)-2-(4-isopropylphenylsulfonamido)-N-(4 morpholinophenyl)propanamide] |  | 73.98 ± 0.39 | 77.74 ± 6.75 | 
18 | COc1ccc(-c2csc(NC(=O)[C@H](Cc3c[nH]c4ccccc34)NS(=O)(=O)c3ccc(C(C)C)cc3)n2)cc1 [Compound 82, (S)-3-(1H-indol-3-yl)-2-(4-isopropylphenylsulfonamido)-N-(4-(4-methoxyphenyl)thiazol-2-yl)propanamide] | 29.3 ± 2.7 | 96.64 ± 0.09 |  | 
19 | Cc1ccc(S(=O)(=O)N[C@@H](Cc2c[nH]c3ccccc23)C(=O)Nc2nc(C)cs2)cc1 [Compound 83, (S)-3-(1H-indol-3-yl)-2-(4-methylphenylsulfonamido)-N-(4-methylthiazol-2-yl)propanamide] | 17.4 ± 3.23 | 97.43 ± 2.01 |  | 
20 | Cc1ccc(S(=O)(=O)N[C@@H](Cc2c[nH]c3ccccc23)C(=O)Nc2nc3ccccc3s2)cc1 [Compound 84, (S)—N-(benzo[d]thiazol-2-yl)-3-(1H-indol-3-yl)-2-(4-methylphenylsulfonamido)propanamide] | -15.8 ± 6.29 | 20.93 ± 11.89 |  | 
21 | O=C(O)[C@H](Cc1c[nH]c2ccccc12)NS(=O)(=O)c1ccc(Br)cc1 [Compound 85, (S)-2-(4-Bromophenylsulfonamido)-3-(1H-indol-3-yl)propanoic acid] | 20.2 ± 1.65 | 10.28 ± 3.54 |  | 
22 | Cc1ccc(S(=O)(=O)N[C@@H](CC(C)C)C(=O)Nc2ncc(N3CCOCC3)s2)cc1 [Compound 86, (S)-4-Methyl-2-(4-methylphenylsulfonamido)-N-(5-morpholinothiazol-2-yl)pentanamide] | 37.7 ± 6.09 | 20.70 ± 1.43 |  | 
23 | COc1ccc(-c2nnc(NC(=O)[C@H](CC(C)C)NS(=O)(=O)c3ccc(C)cc3)s2)cc1 [Compound 87, (S)—N-(5-(4-methoxyphenyl)-1,3,4-thiadiazol-2-yl)-4-methyl-2-(4-methylphenylsulfonamido)pentanamide] | 50.2 ± 7.05 | 36.61 ± 3.85 |  | 
24 | COc1ccc(-c2cc(NC(=O)[C@H](CC(C)C)NS(=O)(=O)c3ccc(C)cc3)no2)cc1 [Compound 88, (S)—N-(5-(4-methoxyphenyl)isoxazol-3-yl)-4-methyl-2-(4-methylphenylsulfonamido)pentanamide] | 57 ± 8.83 | 46.96 ± 4.60 |  | 
25 | COc1ccc(-c2cc(NC(=O)[C@H](CC(C)C)NS(=O)(=O)c3ccc(C)cc3)on2)cc1 [Compound 89, (S)—N-(3-(4-methoxyphenyl)isoxazol-5-yl)-4-methyl-2-(4-methylphenylsulfonamido)pentanamide] | 47.5 ± 13.3 | 98.73 ± 0.92 |  | 
26 | Cc1ccc(S(=O)(=O)N[C@@H](CC(C)C)C(=O)Nc2nc(-c3ccc(C(F)(F)F)cc3)cs2)cc1 [Compound 90, (S)-4-Methyl-2-(4-methylphenylsulfonamido)-N-(4-(4-(trifluoromethyl)phenyl)thiazol-2-yl)pentanamide] | 65.4 ± 4.13 | 86.36 ± 0.64 |  | 
27 | CC(C)(C)c1ccc(S(=O)(=O)N[C@@H](Cc2c[nH]c3ccccc23)C(=O)Nc2ccc(N3CCOCC3)cc2)cc1 [Compound 106, (S)-2-(4-tert-Butylphenylsulfonamido)-3-(1H-indol-3-yl)-N-(4-morpholinophenyl)propan amide] |  | 17.13 ± 5.35 |  | 68.14 ± 9.57 (10 μM)
28 | Cc1ccc(S(=O)(=O)N[C@@H](Cc2c[nH]c3ccccc23)C(=O)Nc2nc(C)cs2)cc1 [Compound 111, (S)-3-(1H-indol-3-yl)-2-(4-methylphenylsulfonamido)-N-(4-methylthiazol-2-yl)propanamide] |  | 11.65 ± 6.05 | 25.61 ± 22.32 | 
